What was measured:
[1] = tested on: experimental autoimmune encephalomyelitis (EAE); test: EAE in C57BL/6 (B6) mice (MOG peptide); type: in vivo; details: 50 ug i.p. every other day from day 7, FIG. 5
Method: Mice were also given 200 ng of pertussis toxin in PBS administered by inter-peritoneal (i.p.) injection on the same day as MOG emulsion injection (day 0) and 2 days later (day 2). […] Mice were scored using the following scale: 0—Mice have no disease, 1—Mice have distal limp tail or rear leg weakness (paresis), 1.5—Mice have distal limp tail and rear leg weakness, 2—Mice have complete limp tail and rear leg weakness, 2.5—Mice have complete limp tail and weakness in both rear legs, 3—Mice have complete limp tail and paralysis in both rear legs, 3.5—Mice have complete limp tail, paralysis in both rear legs, and forelimb weakness. Mice receiving a score of 3.5 were immediately euthanized.

[2] = tested on: Naive CD4+ CD25− FoxP3− cells; test: Th17 cell differentiation conditions: Foxp3 and IL-17A expression; type: cell-based, mouse; details: 0, 1, 10, 100 nM, as concentration increased
Method: To determine whether a RXR agonist can regulate T cell differentiation, the ability of an RXR agonist to promote Treg cell differentiation and inhibit Th17 cell differentiation under Th17 cell differentiation conditions was assessed by monitoring Foxp3 and IL-17A expression. Naive CD4^+ CD25^− FoxP3^− cells were purified from a Foxp3-GFP mouse using flow cytometry by sorting and isolating based upon a GFP^− phenotype. […] See, e.g., Elias, et al., Retinoic Acid Inhibits Th17 Polarization and Enhances FoxP3 Expression through a Stat-3/Stat-5 Independent Pathway, Blood 111(3): […] (2008). […] FIG. 2A. […] FIG. 2B.

[3] = tested on: RXRs and RARs; test: Functional transactivation assays, RXRs compared with RARs; type: cell-based
Method: To determine whether a RXR agonist can mediate its effects via an RXRα receptor homodimers, RXRβ receptor homodimers, RXRγ receptor homodimers, or any combination thereof, or the corresponding RAR/RXR heterodimers, receptor-mediated transactivation assays were performed. For transactivation assays assessing RXR homodimer signaling, CV-1 cells were transfected with 1) an expression construct including a full length RXRα, RXRβ, or RXRγ; and 2) a rCRBPII/RXRE-tk-Luc reporter construct that included RXR homodimer-specific RXRE/DR1 responsive element linked to a luciferase gene. For transactivation assays assessing RAR/RXR heterodimer signaling, CV-1 cells were transfected with 1) an expression construct comprising a fusion protein including an estrogen receptor (ER) DNA binding domain linked to the ligand binding domain of RARα, RARβ, or RARγ and 2) a ERE-tk-Luc reporter construct that included an estrogen receptor responsive element linked to a luciferase gene. The ER-RAR fusion proteins provided an accurate readout of only the transfected ER-RAR. […] Data are mean values±SE from five independent experiments.

[4] = tested on: Naive CD4+ CD25− FoxP3− cells; test: Treg cell differentiation conditions: Foxp3 and α4β7 expression; type: cell-based, mouse
Method: To determine whether a RXR agonist can induce Treg cell differentiation, the ability of an RXR agonist to promote Treg cell differentiation under Treg cell differentiation conditions was assessed by monitoring Foxp3 and α4β7 expression. Naive CD4^+ CD25^− FoxP3^− cells were purified from a Foxp3-GFP mouse using flow cytometry by sorting and isolating based upon a GFP^− phenotype. These cells were then cultured under Treg cell differentiation conditions by treating the cells with αCD3 and αCD28 polyclonal antibodies in the presence of IL-2 and TGF-β. […] FIG. 1A. […] FIG. 1B.

[5] = tested on: CNS infiltrating leukocytes; test: CNS infiltrating cells in EAE B6 mice (FACS); type: in vivo, C57BL/6 (B6) mice; details: day 20, versus vehicle control, FIG. 6
Method: To determine whether a RXR agonist can reduce central nervous system (CNS) infiltrating cells, C57BL/6 (B6) mice were treated as described in Example 6. On day 20 after immunization, mice were sacrificed and perfused with phosphate buffered saline (PBS). Brain and spinal cord tissue was isolated, digested with DNase and Liberase DL (Roche Diagnostics, Indianapolis, Ind.) for 30 minutes, and homogenized through 70 micron nylon mesh filters. Resulting cells were placed over a Percoll gradient to remove myelin. The remaining cells (microglia and CNS infiltrating cells) were counted, stained for molecules of interest, and run on a flow cytometer. Based on the frequencies obtained by FACS of these cell populations, total cell numbers of CNS infiltrating leukocytes expressing CD45, including CD4^+ T cells and CD11c^+ CD11b^+ myeloid dendritic cells (DC), were calculated.

[6] = tested on: experimental autoimmune encephalomyelitis (EAE); test: EAE in SJL mice (PLP peptide); type: in vivo
Method: To determine whether a RXR agonist can attenuate multiple sclerosis, SJL mice were immunized to induce EAE by s.c. injection at the base of their spine with 200 uL of adjuvant containing 200 ug proteolipid proteins (139-151) (PLP peptide; Peptides International, Louisville, Ky.) and 400 ug of non-viable M. tuberculosis H37 desiccate emulsified in a mixture of incomplete Freund's adjuvant and PBS. Mice were also given 150 ng of pertussis toxin in PBS i.p. on the same day as PLP emulsion injection and 2 days later. […] Mice were scored using the scale described in Example 6.

[7] = tested on: FXR/RXR; test: Permissive RXR heterodimer transactivation; type: cell-based; details: appropriate receptor and reporter constructs
[8] = tested on: LXR/RXR; test: Permissive RXR heterodimer transactivation; type: cell-based; details: appropriate receptor and reporter constructs
Description: (§1) This difference represents >2,000-fold selectivity for RXRs over RARs in functional transactivation assays. […] FIG. 4. […] In this regard, RXR agonist 194204 is distinct from other RXR agonists.

[9] = tested on: PPAR/RXR; test: Permissive RXR heterodimer transactivation; type: cell-based; details: appropriate receptor and reporter constructs
Description: as §1

[10] = target: T1, RXRγ (Homo sapiens, UniProt P48443); test: RXR homodimer transactivation assay in CV-1 cells (RXRE-tk-Luc); type: cell-based
T1 construct: an expression construct including a full length RXRα, RXRβ, or RXRγ; expressed in transfected cells; host or cells: CV-1 cells
T1 sequence (P48443 1-463): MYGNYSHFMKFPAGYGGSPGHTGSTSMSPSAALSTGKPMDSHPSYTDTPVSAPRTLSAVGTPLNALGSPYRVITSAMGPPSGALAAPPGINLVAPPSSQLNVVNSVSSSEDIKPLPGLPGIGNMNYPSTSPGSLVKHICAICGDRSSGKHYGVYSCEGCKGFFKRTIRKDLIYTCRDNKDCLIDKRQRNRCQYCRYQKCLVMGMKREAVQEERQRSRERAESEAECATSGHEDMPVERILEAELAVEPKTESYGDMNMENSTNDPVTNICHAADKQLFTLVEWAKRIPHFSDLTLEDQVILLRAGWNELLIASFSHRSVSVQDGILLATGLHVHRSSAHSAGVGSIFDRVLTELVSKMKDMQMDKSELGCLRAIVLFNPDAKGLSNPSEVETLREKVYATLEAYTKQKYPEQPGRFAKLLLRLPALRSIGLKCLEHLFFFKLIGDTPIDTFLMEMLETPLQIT

[11] = target: T2, RXRα (Homo sapiens, UniProt P19793); test: as above; type: cell-based; details: 20 hours, luciferase
T2 sequence (P19793 1-462): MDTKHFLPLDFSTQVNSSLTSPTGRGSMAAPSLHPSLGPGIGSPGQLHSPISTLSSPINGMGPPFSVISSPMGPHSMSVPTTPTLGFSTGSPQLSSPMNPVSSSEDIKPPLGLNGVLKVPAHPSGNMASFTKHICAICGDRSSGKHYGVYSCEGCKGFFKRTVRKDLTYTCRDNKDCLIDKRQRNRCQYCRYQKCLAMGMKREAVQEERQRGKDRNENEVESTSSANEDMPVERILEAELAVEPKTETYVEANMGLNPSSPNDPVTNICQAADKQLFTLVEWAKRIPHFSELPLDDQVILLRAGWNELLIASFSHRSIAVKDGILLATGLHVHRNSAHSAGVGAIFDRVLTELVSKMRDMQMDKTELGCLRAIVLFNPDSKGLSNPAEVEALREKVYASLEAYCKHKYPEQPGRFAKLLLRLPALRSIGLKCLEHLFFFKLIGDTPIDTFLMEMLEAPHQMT
Description: For transactivation assays assessing RXR homodimer signaling, CV-1 cells were transfected with 1) an expression construct including a full length RXRα, RXRβ, or RXRγ; and 2) a rCRBPII/RXRE-tk-Luc reporter construct that included RXR homodimer-specific RXRE/DR1 responsive element linked to a luciferase gene. For transactivation assays assessing RAR/RXR heterodimer signaling, CV-1 cells were transfected with 1) an expression construct comprising a fusion protein including an estrogen receptor (ER) DNA binding domain linked to the ligand binding domain of RARα, RARβ, or RARγ and 2) a ERE-tk-Luc reporter construct that included an estrogen receptor responsive element linked to a luciferase gene. […] Data are mean values±SE from five independent experiments.

[12] = 50 ug i.p. every other day from day 7, FIG. 7

## CC(/C=C/[C@@H]1C[C@]1(C)c1ccc2c(c1)C(C)(C)CCC2(C)C)=C\C(=O)O [RXR agonist 194204, 3,7-dimethyl-6(S),7(S)-methano,7-[1,1,4,4-tetramethyl-1,2,3,4-tetrahydronaphth-7-yl]2(E),4(E) heptadienoic acid]
[1]
  symptoms of EAE (disease severity score): significantly reduces the symptoms of EAE
  time course of efficacy: observed after the first administration (day 7) and maintained throughout the course of the study (day 20)
[2]; FIG. 2A
  Foxp3 expression: Foxp3 expression increased
[2]; FIG. 2B
  IL-17A expression: IL-17A expression decreased
[3]; FIG. 4
  more potent in activating RXR receptors rather than RAR receptors: > 1,000 fold
[3]; at ≥1 μM
  activity at RARs: minimal activity
[4]; Treg conditions (αCD3, αCD28, IL-2, TGF-β), concentrations of 1 nM or higher, FIG. 1A
  Foxp3+ T cells induced: ~100%
[4]; Treg conditions, 0.1, 1.0, 10 nM, FIG. 1B
  α4β7 expression: induced expression of α4β7
[5]
  infiltration of CD4+ cells into the CNS: significant reduction
  infiltration of CD11c+ CD11b+ cells (myeloid DC) into the CNS: significant reduction
[6]; [12]
  symptoms of EAE (disease severity score): significantly reduces the symptoms of EAE
  time course of efficacy: observed after the second administration (day 8) and maintained throughout the course of the study (day 14)
[6]; 50 ug i.p. every other day from day 7, mice affected/group
  Disease Incidence: 4/6
[6]; 50 ug i.p. every other day from day 7, mice/group
  Death from Disease: 0/6
[6]; 50 ug i.p. every other day from day 7, scale 0-3.5
  Mean Maximum Score: 1.5 ± 1.4
[7]
  transactivation of permissive RXR heterodimer FXR/RXR: not to transactivate
[8]
  transactivation of permissive RXR heterodimer LXR/RXR: not to transactivate
[9]
  transactivation of permissive RXR heterodimer PPAR/RXR: not to transactivate
[10]
  Efficacy (% of 1 μM 194204) RXRγ: 0.09 ± 0.01 100 % of 1 μM 194204
[11]
  Efficacy (% of 1 μM 194204) RXRα: 100 % of 1 μM 194204
